Numbered stars: 1 amine (or outer) side, 2 acyl side, 3 side chain; on linkers, the order of the positions; unused ones are H or OH. Square brackets hold non-standard residues; d marks the D form. Peptide text beside a SMILES is read from it. X1 = NN([C@H](Cc1ccccc1)C(=O)[*:2])[*:1]; Orn(Nα-NH2) = NCCC[C@H](NN)C(=O)O; Orn = NCCC[C@H](N)C(=O)O
What was measured:
Assay type in all cases: cell-based
[1] = tested on: Human red blood cells (hRBCs); test: Hemolysis assay using whole human blood; conditions: for Hemolytic Activity (% Hemolysis): hRBCs, 15 min at 37° C., relative to 1.0% triton X-100
Description: Hemolytic Activity: The hemolytic activity of the compounds disclosed herein was also tested. A hemolysis assay was performed using whole human blood (Bioreclamation). […] Cells were incubated for 15 min at 37° C. before being centrifuged at 5500 g for 1 min to pellet nonlysed hRBCs. The supernatant was removed, added to a 96-well microtiter plate, and the OD543 was read using a Biotek synergy2 plate reader. The negative control was vehicle only (DMSO), and the positive control was 1.0% triton X-100.

[2] = tested on: Staphylococcus aureus; test: MIC determination against ESKAPE pathogens (broth culture, 96-well, turbidity); conditions: Staphylococcus aureus strain 635; 37° C.
Description: (§1) The antimicrobial activity of the compounds disclosed herein was tested against a variety of bacteria. The bacterial strains comprised a panel of drug-resistant gram-positive and gram-negative bacteria known as ESKAPE pathogens. The minimum inhibitory concentration (MIC) for the compounds were determined as follows. Broth cultures of ESKAPE strains were grown overnight before being diluted 1 in 1000 in fresh media. Sterile 96-well plates were loaded with culture, and compounds (in DMSO) were added at decreasing concentrations to equal a total volume of 200 μL per well. Care was taken to not add more than 2.0% DMSO to any well. Plates were then incubated at 37° C., and MICs determined after 24 h by visual inspection for a lack of turbidity in wells. All assays were performed in triplicate with identical results obtained.

[3] = tested on: Enterococcus faecium; test: as above; conditions: Enterococcus faecium strain 1450; 37° C.
Description: as §1

[4] = tested on: Enterobacter cloacae; test: as above; conditions: Enterobacter cloacae strain 1454; 37° C.
Description: as §1

[5] = tested on: Acinetobacter baumannii; test: as above; conditions: Acinetobacter baumannii strain 5075; 37° C.
Description: as §1

[6] = tested on: Pseudomonas aeruginosa; test: as above; conditions: Pseudomonas aeruginosa strain 1419; 37° C.
Description: as §1

[7] = tested on: gram-negative bacteria; test: Antimicrobial activity, summary for gram-negative bacteria; conditions: compared to GS
Description: as §1

## CC(C)C[C@@H]1NC(=O)[C@H](CCCN)NC(=O)[C@H](C(C)C)NC(=O)[C@@H]2CCCN2C(=O)[C@@H](Cc2ccccc2)N(N)C(=O)[C@H](CC(C)C)NC(=O)[C@H](CCCN)NC(=O)[C@H](C(C)C)NC(=O)[C@@H]2CCCN2C(=O)[C@@H](Cc2ccccc2)NC1=O [Compound 1] (HELM PEPTIDE1{L.[dF].P.V.[Orn].L.[NN([C@H](Cc1ccccc1)C(=O)[*:2])[*:1]].P.V.[Orn]}$PEPTIDE1,PEPTIDE1,1:R1-10:R2$$$V2.0)
[1]; 6.25 μM
  Hemolytic Activity (% Hemolysis): 0.00%
[1]; 12.5 μM
  Hemolytic Activity (% Hemolysis): 0.00%
[1]; 25 μM
  Hemolytic Activity (% Hemolysis): 0.00%
[1]; 50 μM
  Hemolytic Activity (% Hemolysis): 0.00%
[2]
  MC90 Results, Sa (+): >50 µM
[3]
  MC90 Results, Ef (+): >50 µM
[4]
  MC90 Results, Ec (−): >50 µM
[5]
  MC90 Results, Ab (−): >50 µM
[6]
  MC90 Results, Pa (−): >50 µM

## CC(C)C[C@@H]1NC(=O)[C@H](CCCN)NC(=O)[C@H](C(C)C)NC(=O)[C@@H]2CCCN2C(=O)[C@@H](Cc2ccccc2)N(N)C(=O)[C@H](CC(C)C)NC(=O)[C@H](CCCN)NC(=O)[C@H](C(C)C)NC(=O)[C@@H]2CCCN2C(=O)[C@@H](Cc2ccccc2)N(N)C1=O [Compound 2] (HELM PEPTIDE1{L.[NN([C@H](Cc1ccccc1)C(=O)[*:2])[*:1]].P.V.[Orn].L.[NN([C@H](Cc1ccccc1)C(=O)[*:2])[*:1]].P.V.[Orn]}$PEPTIDE1,PEPTIDE1,1:R1-10:R2$$$V2.0)
[1]; 6.25 μM
  Hemolytic Activity (% Hemolysis): 0.00%
[1]; 12.5 μM
  Hemolytic Activity (% Hemolysis): 0.00%
[1]; 25 μM
  Hemolytic Activity (% Hemolysis): 2.84%
[1]; 50 μM
  Hemolytic Activity (% Hemolysis): 11.24%
[2]
  MC90 Results, Sa (+): 4 µM
[3]
  MC90 Results, Ef (+): 4 µM
[4]
  MC90 Results, Ec (−): >50 µM
[5]
  MC90 Results, Ab (−): 12.5 µM
[6]
  MC90 Results, Pa (−): 35 µM

## CC(C)C[C@@H]1NC(=O)[C@H](CCCN)NC(=O)[C@H](C(C)C)NC(=O)[C@@H]2CCCN2C(=O)[C@@H](Cc2ccccc2)NC(=O)[C@H](CC(C)C)NC(=O)[C@H](CCCN)N(N)C(=O)[C@H](C(C)C)NC(=O)[C@@H]2CCCN2C(=O)[C@@H](Cc2ccccc2)NC1=O [Compound 3] (HELM PEPTIDE1{L.[dF].P.V.[Orn].L.[dF].P.V.[NCCC[C@@H](C(=O)[*:2])N(N)[*:1]]}$PEPTIDE1,PEPTIDE1,1:R1-10:R2$$$V2.0)
[1]; 6.25 μM
  Hemolytic Activity (% Hemolysis): 0.00%
[1]; 12.5 μM
  Hemolytic Activity (% Hemolysis): 0.00%
[1]; 25 μM
  Hemolytic Activity (% Hemolysis): 1.49%
[1]; 50 μM
  Hemolytic Activity (% Hemolysis): 13.68%
[2]
  MC90 Results, Sa (+): 2 µM
[3]
  MC90 Results, Ef (+): 3 µM
[4]
  MC90 Results, Ec (−): 30 µM
[5]
  MC90 Results, Ab (−): 6.5 µM
[6]
  MC90 Results, Pa (−): 13 µM

## CC(C)C[C@@H]1NC(=O)[C@H](CCCN)N(N)C(=O)[C@H](C(C)C)NC(=O)[C@@H]2CCCN2C(=O)[C@@H](Cc2ccccc2)N(N)C(=O)[C@H](CC(C)C)NC(=O)[C@H](CCCN)NC(=O)[C@H](C(C)C)NC(=O)[C@@H]2CCCN2C(=O)[C@@H](Cc2ccccc2)NC1=O [Compound 4] (HELM PEPTIDE1{L.[dF].P.V.[Orn].L.[NN([C@H](Cc1ccccc1)C(=O)[*:2])[*:1]].P.V.[NCCC[C@@H](C(=O)[*:2])N(N)[*:1]]}$PEPTIDE1,PEPTIDE1,1:R1-10:R2$$$V2.0)
[1]; 6.25 μM
  Hemolytic Activity (% Hemolysis): 0.00%
[1]; 12.5 μM
  Hemolytic Activity (% Hemolysis): 0.00%
[1]; 25 μM
  Hemolytic Activity (% Hemolysis): 1.98%
[1]; 50 μM
  Hemolytic Activity (% Hemolysis): 14.00%
[2]
  MC90 Results, Sa (+): 2 µM
[3]
  MC90 Results, Ef (+): 3 µM
[4]
  MC90 Results, Ec (−): 30 µM
[5]
  MC90 Results, Ab (−): 6.5 µM
[6]
  MC90 Results, Pa (−): 15 µM

## CC(C)C[C@@H]1NC(=O)[C@H](CCCN)NC(=O)[C@H](C(C)C)NC(=O)[C@@H]2CCCN2C(=O)[C@@H](Cc2ccccc2)N(N)C(=O)[C@H](CC(C)C)NC(=O)[C@H](CCCN)N(N)C(=O)[C@H](C(C)C)NC(=O)[C@@H]2CCCN2C(=O)[C@@H](Cc2ccccc2)N(N)C1=O [Compound 5] (cyclo(L[X1]PV[Orn]L[X1]PV[Orn(Nα-NH2)]))
[1]; 6.25 μM
  Hemolytic Activity (% Hemolysis): 0.21%
[1]; 12.5 μM
  Hemolytic Activity (% Hemolysis): 0.00%
[1]; 25 μM
  Hemolytic Activity (% Hemolysis): 2.82%
[1]; 50 μM
  Hemolytic Activity (% Hemolysis): 17.93%

## CC(C)C[C@@H]1NC(=O)[C@H](CCCN)NC(=O)[C@H](C(C)C)NC(=O)[C@@H]2CCCN2C(=O)[C@@H](Cc2ccccc2)N(N)C(=O)[C@H](CC(C)C)NC(=O)[C@H](CCCN)N(N)C(=O)[C@H](C(C)C)NC(=O)[C@@H]2CCCN2C(=O)[C@@H](Cc2ccccc2)NC1=O [Compound 6] (HELM PEPTIDE1{L.[dF].P.V.[NCCC[C@@H](C(=O)[*:2])N(N)[*:1]].L.[NN([C@H](Cc1ccccc1)C(=O)[*:2])[*:1]].P.V.[Orn]}$PEPTIDE1,PEPTIDE1,1:R1-10:R2$$$V2.0)
[1]; 6.25 μM
  Hemolytic Activity (% Hemolysis): 0.00%
[1]; 12.5 μM
  Hemolytic Activity (% Hemolysis): 0.00%
[1]; 25 μM
  Hemolytic Activity (% Hemolysis): 3.24%
[1]; 50 μM
  Hemolytic Activity (% Hemolysis): 17.91%

## CC(C)C[C@@H]1NC(=O)[C@H](CCCN)N(N)C(=O)[C@H](C(C)C)NC(=O)[C@@H]2CCCN2C(=O)[C@@H](Cc2ccccc2)NC(=O)[C@H](CC(C)C)NC(=O)[C@H](CCCN)N(N)C(=O)[C@H](C(C)C)NC(=O)[C@@H]2CCCN2C(=O)[C@@H](Cc2ccccc2)NC1=O [Compound 7] (HELM PEPTIDE1{L.[dF].P.V.[NCCC[C@@H](C(=O)[*:2])N(N)[*:1]].L.[dF].P.V.[NCCC[C@@H](C(=O)[*:2])N(N)[*:1]]}$PEPTIDE1,PEPTIDE1,1:R1-10:R2$$$V2.0)
[1]; 6.25 μM
  Hemolytic Activity (% Hemolysis): 0.00%
[1]; 12.5 μM
  Hemolytic Activity (% Hemolysis): 0.21%
[1]; 25 μM
  Hemolytic Activity (% Hemolysis): 3.57%
[1]; 50 μM
  Hemolytic Activity (% Hemolysis): 15.84%
[7]
  activity against gram-negative bacteria: improved significantly
[2]
  MC90 Results, Sa (+): 2 µM
[3]
  MC90 Results, Ef (+): 2 µM
[4]
  MC90 Results, Ec (−): 20 µM
[5]
  MC90 Results, Ab (−): 4 µM
[6]
  MC90 Results, Pa (−): 10 µM

## CC(C)C[C@@H]1NC(=O)[C@H](CCCN)N(N)C(=O)[C@H](C(C)C)NC(=O)[C@@H]2CCCN2C(=O)[C@@H](Cc2ccccc2)N(N)C(=O)[C@H](CC(C)C)NC(=O)[C@H](CCCN)N(N)C(=O)[C@H](C(C)C)NC(=O)[C@@H]2CCCN2C(=O)[C@@H](Cc2ccccc2)NC1=O [Compound 8] (cyclo(L[dF]PV[Orn(Nα-NH2)]L[X1]PV[Orn(Nα-NH2)]))
[1]; 6.25 μM
  Hemolytic Activity (% Hemolysis): 0.00%
[1]; 12.5 μM
  Hemolytic Activity (% Hemolysis): 0.88%
[1]; 25 μM
  Hemolytic Activity (% Hemolysis): 2.91%
[1]; 50 μM
  Hemolytic Activity (% Hemolysis): 15.07%
[2]
  MC90 Results, Sa (+): 2 µM
[3]
  MC90 Results, Ef (+): 2 µM
[4]
  MC90 Results, Ec (−): >50 µM
[5]
  MC90 Results, Ab (−): 6 µM
[6]
  MC90 Results, Pa (−): 12 µM

## CC(C)C[C@@H]1NC(=O)[C@H](CCCN)N(N)C(=O)[C@H](C(C)C)NC(=O)[C@@H]2CCCN2C(=O)[C@@H](Cc2ccccc2)N(N)C(=O)[C@H](CC(C)C)NC(=O)[C@H](CCCN)N(N)C(=O)[C@H](C(C)C)NC(=O)[C@@H]2CCCN2C(=O)[C@@H](Cc2ccccc2)N(N)C1=O [Compound 9] (cyclo(L[X1]PV[Orn(Nα-NH2)]L[X1]PV[Orn(Nα-NH2)]))
[1]
  toxicity to human cells compared to GS: exception
[1]; 6.25 μM
  Hemolytic Activity (% Hemolysis): 0.00%
[1]; 12.5 μM
  Hemolytic Activity (% Hemolysis): 2.75%
[1]; 25 μM
  Hemolytic Activity (% Hemolysis): 6.19%
[1]; 50 μM
  Hemolytic Activity (% Hemolysis): 25.01%
[2]
  MC90 Results, Sa (+): 2 µM
[3]
  MC90 Results, Ef (+): 2 µM
[4]
  MC90 Results, Ec (−): >50 µM
[5]
  MC90 Results, Ab (−): 5 µM
[6]
  MC90 Results, Pa (−): 15 µM
